What was measured:
[1] = test system: neonatal rat cardiomyocytes; experiment: Protein synthesis ([3H]phenylalanine incorporation) in neonatal rat cardiomyocytes; format: cell-based
Description: Neonatal rat ventricular cardiomyocytes were isolated from one or two days old rat pups using the following reagents and isolation procedure:
When cardiomyocytes undergo hypertrophy several biochemical parameters can be monitored. There is an increase in protein synthesis and atrial natriuretic peptide (ANP) synthesis and an upregulation of the β-myosin heavy chain gene. These three parameters were used to assess the effects of ligands of the peripheral-type benzodiazepine receptor (PTBR) upon neonatal rat cardiomyocytes.
Protein synthesis is assessed by including radiolabelled amino acids in the experimental incubation medias (i.e., [^3H]phenylalanine) at the end of the incubation the cell monolayer is washed with phosphate bufered saline, fized with 10% TCA and lysed with 0.25N NaOH. The total cell lysate is then assessed for tritium contant by scintillation spectrometry.
a. Neonatal rat cardiomyocytes were cultured in 24-well plates for 24 hours in serum-free medium. Medium was then removed and replaced with experimental culture medium containing [^3H]phenylalanine (10 μCi/ml) and either the PTBR agonist Ro5-4864 (RBI, MA, USA) in a concentration range of 10^−12-10^−8 M, or the PTBR antagonist PK11195 (RBI, MA, US) in a concentration range of 10^−12-10^−8 M. Control incubations received [^3H]phenylalanine (10 μCi/ml) containing medium alone. Cell cultures were returned to the incubator for a further 48 hour incubation after which time the cell culture supernatants were harvested for ANP analysis and the cell monolayers were prepared for assessment of tritium incorporation. […] However, at concentrations greater than or equal to 10^−11 M, the PTBR agonist Ro5-4864 caused a three-fold increase in protein synthesis and a five-fold increase in ANP synthesis. Data are expressed as the mean+/−standard deviations of quadruplet samples.
b. Neonatal rat cardiomyocytes were cultured in 24-well plates for 24 hours in serum-free medium. Medium was then removed and replaced with experimental culture medium containing [^3H]phenylalanine (10 μCi/ml) and either the PTBR agonist Ro5-4864 (RBI, MA, USA) in a concentration range of 10^−12-10^−8 M, or the PTBR antagonist PK11195 (RBI, MA, US) at a concentration of 10^−10 M. Control incubations received [^3H]phenylalanine (10 μCi/ml) containing medium alone. Cell cultures were returned to the incubator for a further 48 hour incubation after which time the cell culture supernatants were harvested for ANP analysis and the cell monolayers were prepared for assessment of tritium incorporation. […] Data are expressed as the mean+/−standard deviations of quadruplet samples.

[2] = test system: isolated rat heart preparation; conditions: cited from earlier work
[3] = test system: isolated working rat heart; conditions: cited from earlier work
[4] = test system: human atrial strips; conditions: cited from earlier work
[5] = test system: neonatal rat cardiomyocytes; experiment: ANP synthesis (competition binding ELISA of culture supernatants) in neonatal rat cardiomyocytes; format: cell-based
[6] = test system: guinea pig heart preparation; conditions: cited from earlier work
[7] = test system: neonatal rat cardiomyocytes; experiment: Hypertrophic response of neonatal rat cardiomyocytes (conclusions over all readouts); format: cell-based
[8] = test system: isolated perfused Langendorf rat heart; conditions: cited from earlier work
[9] = test system: β-MHC promoter; experiment: β-MHC promoter-luciferase reporter in neonatal rat cardiomyocytes; format: cell-based; conditions: greater than or equal to 10^-11 M; 24 hours; normalized to SEAP; FIG. 9
Method: To monitor the expression of β-MHC, β-MHC promoter-luciferase reporter plasmid was constructed. This plasmid is inserted into the cardiomyocyte cultures by liposome mediated transfection and luciferase activity in cell lysates determined following incubation. The amount of luciferase actvity is directly proportional to the level of transcription of the β-MHC gene.
c. Neonatal cardiomyocytes were cultures in 6-well plates overnight following isolation. The cell monolayers were then transfected with a β-MHC promoter-luciferase reported plasmid and a control plasmid to aid data normalization (pSEAP2 Clontech Corp) using lipofectamine liposome mediated plasmid delivery. Following recovery from the transfection, the cell cultures were treated for 24 hours in the presence and absence of the PTBR agonist Ro5-4864 at 10^−12 M, 10^−11 M and 10^−10 M. The culture supernatants were then harvested for SEAP activity and cell lysates prepared for luciferase assay. […] Data are expressed as the mean+/−standard derivations of triplicate samples.

[10] = test system: neonatal rat cardiomyocytes; experiment: Morphology of neonatal rat cardiomyocyte cultures (photography); format: cell-based; conditions: 10^-10 M, serum-free
Method: When cardiomyocytes undergo hypertrophy, their morphology changes quite drastically. The cells become larger and more spread out so another technique employed to monitor hypertrophic effects on cardiomyocytes is to assess their morphology and document that by photography.
d. Neonatal rat cardiomyocytes were cultures in 6-well plates overnight following isolation. […] FIGS. 10B and 10C show the same cultures following 96 hours of culture and the differenes between control and treated are quite striking.

[11] = test system: isolated cardiac and smooth muscle; conditions: cited from earlier work
[12] = dogs; cited from earlier work
[13] = following intravenous administration; cited from earlier work
[14] = test system: [3H]diazepam binding to heart tissue; conditions: cited from earlier work
[15] = target: PTBR (Homo sapiens, UniProt P30536); conditions: cited from earlier work
[16] = 10^-11 M PK11195 (so in the source), Ro5-4864 10^-12-10^-10 M, 48 hour, FIG. 8
[17] = compound alone, 10^-12-10^-8 M, 48 hour incubation, FIG. 7
[18] = isolated perfused Langendorf rat heart
[19] = Ro5-4864 at higher concentrations (10^-11-10^-8 M) with 10^-10 M PK11195, FIG. 8
[20] = concentrations greater than or equal to 10^-11 M, 48 hour incubation, vs control, FIG. 7

Chain of PTBR (P30536 whole entry): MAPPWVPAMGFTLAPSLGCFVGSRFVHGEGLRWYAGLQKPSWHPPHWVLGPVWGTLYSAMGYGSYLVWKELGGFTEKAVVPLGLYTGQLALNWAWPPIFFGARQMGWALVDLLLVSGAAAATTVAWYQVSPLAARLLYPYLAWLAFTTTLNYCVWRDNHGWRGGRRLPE
Chain of [3H]diazepam binding to heart tissue (P30536 2-169 limits assumed): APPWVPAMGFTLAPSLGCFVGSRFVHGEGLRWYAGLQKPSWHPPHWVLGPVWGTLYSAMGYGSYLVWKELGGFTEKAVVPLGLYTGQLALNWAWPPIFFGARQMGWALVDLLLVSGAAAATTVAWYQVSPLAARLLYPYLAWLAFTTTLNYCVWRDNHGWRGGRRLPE

Molecule: CCC(C)N(C)C(=O)c1cc2ccccc2c(-c2ccccc2Cl)n1 (centres unmarked) [PK11195, 1-(2-chlorophenyl)-N-methyl-N-(1-methylpropyl)-3-isoquinoline carboxamide]
- effect on the Ro5-4864 induced increase in protein synthesis [1, 16]: prevented
- effect on protein synthesis (incorporation of radiolabelled phenylalanine) [1, 17]: no effects
- antagonism of the positive inotropy induced by diazepam [2]: antagonized
- effect on cardiac function [3]: depress cardiac function
- antagonism of the depressant effect of Ro5-4864 [4]: not antagonized
- effect on the Ro5-4864 induced increase in ANP synthesis [5, 16]: prevented
- effect on ANP synthesis [5, 17]: no effects
- reversal of the effects of Ro5-4864 [6]: reversed
- reversal of the Ro5-4864 hypertrophic effect ([7]; coincubation of Ro5-4864 with PK11195): can be reversed
- antagonism of the vasodilatory effect of Ro5-4864 [8, 18]: did not antagonize

Molecule: CN1C(=O)CN=C(c2ccc(Cl)cc2)c2cc(Cl)ccc21 [Ro5-4864]
- agonist induced increase in protein synthesis in the presence of PK11195 [1, 19]: able to overcome the inhibitory effect of PK11195
- increase in protein synthesis (incorporation of radiolabelled phenylalanine) [1, 20]: three-fold
- effect on cardiac function [3]: depress cardiac function
- depressant effect on the contraction amplitude (negative inotropic effect) [4]: 20%
- increase in luciferase activity (transcriptional activity from the β-MHC promoter) [9]: three-fold
- cell size / morphology of cardiomyocytes ([10]; 24 hours of culture, FIG. 10A): larger cell size
- cell size / morphology of cardiomyocytes ([10]; 96 hours of culture, FIGS. 10B and 10C): much larger and adherent to the extracellular matrix
- agonist induced increase in ANP synthesis in the presence of PK11195 [5, 19]: able to overcome the inhibitory effect of PK11195
- increase in ANP synthesis [5, 20]: five-fold
- duration of intracellular action potential and contractility [6]: decreased
- hypertrophic response: increase in protein synthesis, ANP synthesis, transcription of the β-MHC gene reporter ([7]; summary of Example 2): three- to five-fold
- coronary flow [8, 18]: increase coronary flow
- heart rate and left ventricular contractility [8, 18]: without affecting

Molecule: O=C1CN=C(c2ccccc2Cl)c2cc([N+](=O)[O-])ccc2N1 [clonazepam]
- duration of intracellular action potential and contractility [6]: ineffective

Molecule: CN1C(=O)CN=C(c2ccccc2)c2cc(Cl)ccc21 [diazepam]
- potentiation of the actions of adenosine [11]: potentiates
- inotropic effect [2]: transient negative inotropic effect followed by a positive inotropic response
- potentiation of the coronary vasodilator action of adenosine [12]: potentiates
- duration of intracellular action potential and contractility [6]: less effective
- vagal tone [13]: decrease
- contractile force ([8]; Langendorf rat heart): increased contractile force

Molecule: OCCN(CCO)c1nc(N2CCCCC2)c2nc(N(CCO)CCO)nc(N3CCCCC3)c2n1 [dipyridamole]
- competition of [3H]diazepam binding [14]: can compete

Molecule: trikontetraneuropeptide: shorter fragment of DBI (fragment 17-50) (KTKPSDEEMLFIYGHYKQATVGDINTERPGMLDF; Triakontatetraneuropeptide; UniProt P07108 17-50, looked up, fragment)
- selectivity for PTBR relative to DBI [15]: more selective for PTBR

Reference: patent US6686354B2, “Agonists and antagonists of peripheral-type benzodiazepine receptors” (Scios, Inc., priority 1998, dated 2004)
